Read-outs that look alike come from different tables or passages of the source.
Type: physicochemical
Settings: for effect of added alkaline compound on stability of nBTPT on UAS: UAS+500 ppm nBTPT powder+2350 ppm rapeseed oil, 12 days open to air storage at 30° C. in an oven; for half-life time for nBTPT: stored in bags at room temperature (20-25° C.)
Method: For lab scale experiments, 1.2 kg of solid fertilizer material was added to a lab scale drum. In a next step, the nBTPT material was slowly added. A residence time of 10 minutes was applied and the rotating speed of the drum was consequently the same in each experiment. In case a moisture repellent coating was added, a nebulizer was used and depending on the order of addition, the moisture repellent coating was added before or after addition of the nBTPT material. Before use, the moisture repellent coating was preheated to 80° C. Larger scale experiments with amounts up to 40 kg of fertilizer material were performed in a concrete mixer.
The samples were stored under several conditions, dependent on the type of samples: • 20° C. closed plastic container with head space (Climate chamber, 80% relative humidity) • Bagged at room temperature (20-25° C.) or in nissenhut • Open to air in nissenhut • Cylinder test in nissenhut • Open pile in nissenhut
For some samples, an accelerated stability test was done storing these samples at elevated temperatures: • Oven of 30° C. closed plastic container • Oven of 30° C. open to air • 30° C./60% RH open to air • 70° C. closed plastic container
Typically, a day/night cycle is generated in the nissenhut, with temperature fluctuations between 0 to 42° C. and fluctuations of relative humidity between 20 and 90%, which can be compared with real life storage in silos.
HPLC analysis of nBTPT is done as described in the procedure CEN 15688-2007.

O=C([O-])[O-].[Ca+2] [calcium carbonate]
effect of added alkaline compound on stability of nBTPT on UAS: stabilizing effect

[O]=[Ca] [calcium oxide]
effect of added calcium oxide on stability of nBTPT on UAS (500-2350 ppm calcium oxide, UAS+500 ppm nBTPT powder, 8 days open to air at nissenhut (16-42° C./27-77% relative humidity)): large stabilizing effect | effect of added alkaline compound on stability of nBTPT on UAS: stabilizing effect

CCCCNP(N)(N)=S [nBTPT, N-(n-butyl) thiophosphoric triamide]
effect of moisture repellent coating and of solid particulate form on stability of nBTPT on UAS (7 days in closed plastic containers with head space at 20° C./80% relative humidity, FIG. 10): beneficial effect | effect of calcium oxide addition and of solid particulate form on stability of nBTPT on UAS (16 days in bags at nissenhut (16-42° C./27-77% relative humidity), FIG. 8): beneficial effect | effect of calcium oxide addition and of bagged storage on stability of nBTPT on UAS (16 days in nissenhut (16-42° C./27-77% relative humidity), FIG. 9): beneficial effect | effect of calcium oxide, solid particulate form, moisture repellent coating and bagged storage on stability of nBTPT on UAS (16 days in nissenhut (16-42° C./27-77% relative humidity), FIG. 12): beneficial effect | effect of solid particulate form and of bagged storage on stability of nBTPT on UAS (28 days at room temperature (20-25° C.), FIG. 11): beneficial effect | effect of bagged versus open to air storage on stability of nBTPT on UAS (solid nBTPT (500 ppm), 28 days at room temperature (20-25° C.)): beneficial effect | half-life time for nBTPT (solid particulate form on UAS plus alkaline or alkaline-forming compound and moisture repellent coating): 6-12 months | half-life time for nBTPT (urease inhibitor in liquid form on UAS): only a few days | half-life time for nBTPT (urease inhibitor in solid particulate form on UAS): up to 4 months

[O]=[Zn] [zinc oxide]
effect of added alkaline compound on stability of nBTPT on UAS: best effect

Source: patent US10626058B2, “Urea ammonium sulphate-based composition and method for the manufacture thereof” (YARA INTERNATIONAL ASA, priority 2015, dated 2020)
